For assay [1], the target named is T1, isolated recombinant JAK1 kinase domain (Homo sapiens, UniProt P23458).
T1 construct: The activity of the isolated recombinant JAK1 and JAK2 kinase domain was measured
The experiment in a line: JAK1 enzyme assay (Caliper LabChip, Ki). The format is biochemical. The note with it: recombinant JAK1 kinase domain, 25 μM ATP. In a few lines:
(§1)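 Phosphorylation of a fluorescent JAK3-derived dodecapeptide by recombinant human JAK1 or JAK2 catalytic domain is monitored through electrophoretic product/substrate separation. Incubation lasts 30 minutes at 22° C; EDTA quench. Morrison-model Ki values account for ATP competition.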

In assay [2] the target is T2, isolated recombinant JAK2 kinase domain (Homo sapiens, UniProt O60674).
T2 construct: The activity of the isolated recombinant JAK1 and JAK2 kinase domain was measured
T2 sequence (O60674 849-1124 limits assumed): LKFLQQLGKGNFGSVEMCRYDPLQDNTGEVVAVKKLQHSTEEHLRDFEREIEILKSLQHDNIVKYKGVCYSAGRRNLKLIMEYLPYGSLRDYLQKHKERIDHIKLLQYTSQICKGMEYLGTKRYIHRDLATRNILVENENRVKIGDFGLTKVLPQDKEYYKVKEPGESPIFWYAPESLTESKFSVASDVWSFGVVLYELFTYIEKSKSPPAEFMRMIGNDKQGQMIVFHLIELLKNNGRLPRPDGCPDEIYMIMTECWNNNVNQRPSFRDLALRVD
As to the kind of experiment: JAK2 enzyme assay (Caliper LabChip, Ki). The format is biochemical. The note with it: 25 μM ATP. In outline:
as §1

Assay [3] concerns JAK1-dependent STAT6 phosphorylation downstream of IL-13 stimulation in BEAS-2B human bronchial epithelial cells. As to the kind of experiment: JAK1 pathway assay in BEAS-2B cells (IL-13 stimulated STAT6 phosphorylation, MSD). In kind it is cell-based. The note with it: read-out: P-STAT6 BEAS2B + IL13 IC50. In outline:
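BEAS-2B human bronchial epithelial cells, plated the day before in complete growth medium, were preincubated with compound for 1 hr at 37° C (0.2% DMSO final), then stimulated with IL-13 at its EC90 for 15 min. STAT6 phosphorylation in lysates was read by MSD; EC50 was taken as 50% inhibition versus DMSO control.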

SMILES strings stand for the structures.

T1 sequence (P23458 875-1153 limits assumed): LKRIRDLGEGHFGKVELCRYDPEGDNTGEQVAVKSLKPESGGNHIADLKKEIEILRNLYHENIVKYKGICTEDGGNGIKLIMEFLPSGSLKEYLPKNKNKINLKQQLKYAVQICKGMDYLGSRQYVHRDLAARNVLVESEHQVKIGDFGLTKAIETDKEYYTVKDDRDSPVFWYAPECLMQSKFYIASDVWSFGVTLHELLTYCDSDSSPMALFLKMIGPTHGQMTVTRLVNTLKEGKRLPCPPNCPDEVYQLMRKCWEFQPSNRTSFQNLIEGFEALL

In the case of `CSc1ccc(OC(F)F)c(-c2nn(CC(=O)N3CCC(N(C)C4COC4)CC3)cc2NC(=O)c2cnn3cccnc23)c1` [Example 46, N-(3-(2-(difluoromethoxy)-5-(methylthio)phenyl)-1-(2-(4-(methyl(oxetan-3-yl)amino)piperidin-1-yl)-2-oxoethyl)-1H-pyrazol-4-yl)pyrazolo[1,5-a]pyrimidine-3-carboxamide], the results for the Ki in assay [1] and in assay [2] were 0.25 nM and 0.44 nM, respectively. Besides, the IC50 – broadly, the midpoint of a concentration-inhibition curve – in assay [3] turned out to be 22 nM.

Consider `CSc1ccc(OC(F)F)c(-c2nn(CC(=O)N3CCC(N4CCC[C@H]4C(=O)N(C)C)CC3)cc2NC(=O)c2cnn3cccnc23)c1` [Example 47, N-[3-[2-(difluoromethoxy)-5-methylsulfanyl-phenyl]-1-[2-[4-[(2S)-2-(dimethylcarbamoyl)pyrrolidin-1-yl]-1-piperidyl]-2-oxo-ethyl]pyrazol-4-yl]pyrazolo[1,5-a]pyrimidine-3-carboxamide], for which the Ki (usually the equilibrium dissociation constant of an inhibitor or competing ligand from its target) in assay [1] was 0.52 nM; in assay [2] it was 1.3 nM. Besides, in assay [3], the half-maximal inhibitory concentration (IC50) was determined as 350 nM.

As for `CSc1ccc(OC(F)F)c(-c2nn(CC(=O)N3CCC(N4CC[S+]([O-])CC4)CC3)cc2NC(=O)c2cnn3cccnc23)c1` [Example 48, N-[3-[2-(difluoromethoxy)-5-methylsulfanyl-phenyl]-1-[2-oxo-2-[4-(1-oxo-1,4-thiazinan-4-yl)-1-piperidyl]ethyl]pyrazol-4-yl]pyrazolo[1,5-a]pyrimidine-3-carboxamide], the inhibitory constant (Ki) in assay [1] stood at 0.29 nM; in assay [2] it was 0.44 nM. Moreover, the IC50 in assay [3] was 410 nM.

On to `CSc1ccc(OC(F)F)c(-c2nn(CC(=O)N3CCC(N(C)[C@H]4CCOC4)CC3)cc2NC(=O)c2cnn3cccnc23)c1` [Example 49, N-[3-[2-(difluoromethoxy)-5-methylsulfanyl-phenyl]-1-[2-[4-[methyl-[(3S)-tetrahydrofuran-3-yl]amino]-1-piperidyl]-2-oxo-ethyl]pyrazol-4-yl]pyrazolo[1,5-a]pyrimidine-3-carboxamide], for which the results for the Ki in assay [1] and in assay [2] were 0.28 nM and 0.62 nM, respectively. For the same molecule, the IC50 in assay [3] came to 15 nM.

On to `CSc1ccc(OC(F)F)c(-c2nn(CC(=O)N3CCC(N(C)CC4OCCO4)CC3)cc2NC(=O)c2cnn3cccnc23)c1` [Example 50], for which the Ki in assay [1] was 0.5 nM; in assay [2], 0.96 nM. Besides, the IC50 in assay [3] stood at 18 nM.

Consider `CSc1ccc(OC(F)F)c(-c2nn(CC(=O)N3CCC(N(C)CC4(C)OCCO4)CC3)cc2NC(=O)c2cnn3cccnc23)c1` [Example 51, N-[3-[2-(difluoromethoxy)-5-methylsulfanyl-phenyl]-1-[2-[4-[methyl-[(2-methyl-1,3-dioxolan-2-yl)methyl]amino]-1-piperidyl]-2-oxo-ethyl]pyrazol-4-yl]pyrazolo[1,5-a]pyrimidine-3-carboxamide], for which the results for the Ki in assay [1] and in assay [2] were 0.43 nM and 0.97 nM, respectively. Besides, the IC50 in assay [3] is 26 nM.

In the case of `CNC(=O)[C@@H]1CCCN1C1CCN(C(=O)Cn2cc(NC(=O)c3cnn4cccnc34)c(-c3cc(SC)ccc3OC(F)F)n2)CC1` [Example 52, N-[3-[2-(difluoromethoxy)-5-methylsulfanyl-phenyl]-1-[2-[4-[(2S)-2-(methylcarbamoyl)pyrrolidin-1-yl]-1-piperidyl]-2-oxo-ethyl]pyrazol-4-yl]pyrazolo[1,5-a]pyrimidine-3-carboxamide], the Ki in assay [1] is 0.29 nM; in assay [2], 0.44 nM. The IC50 in assay [3] amounted to 43 nM.

Regarding `CSc1ccc(OC(F)F)c(-c2nn(CC(=O)N3CCN(C4CCOCC4)CC3)cc2NC(=O)c2cnn3cccnc23)c1` [Example 53, N-[3-[2-(difluoromethoxy)-5-methylsulfanyl-phenyl]-1-[2-oxo-2-(4-tetrahydropyran-4-ylpiperazin-1-yl)ethyl]pyrazol-4-yl]pyrazolo[1,5-a]pyrimidine-3-carboxamide], the Ki came out at 0.27 nM in assay [1] and 0.32 nM in assay [2]. Besides, in assay [3], the IC50 was found to be 12 nM.

For `CSc1ccc(OC(F)F)c(-c2nn(CC(=O)N3CCN(C4CCOC4)CC3)cc2NC(=O)c2cnn3cccnc23)c1` (stereo not drawn) [Example 54, N-[3-[2-(difluoromethoxy)-5-methylsulfanyl-phenyl]-1-[2-oxo-2-(4-tetrahydrofuran-3-ylpiperazin-1-yl)ethyl]pyrazol-4-yl]pyrazolo[1,5-a]pyrimidine-3-carboxamide], the Ki in assay [1] was determined as 0.23 nM; in assay [2] it was 0.31 nM. The IC50 in assay [3] amounted to 12 nM.

Take `CSc1ccc(OC(F)F)c(-c2nn(CC(=O)N3CCC(N4CCC[C@H](C#N)C4)CC3)cc2NC(=O)c2cnn3cccnc23)c1` [Example 55, N-[1-(2-[4-[(3 S)-3-cyanopiperidin-1-yl]piperidin-1-yl]-2-oxoethyl)-3-[2-(difluoromethoxy)-5-(methylsulfanyl)phenyl]-1H-pyrazol-4-yl]pyrazolo[1,5-a]pyrimidine-3-carboxamide]: the Ki in assay [1] amounted to 0.27 nM; in assay [2], 0.52 nM. The IC50 in assay [3] worked out at 11 nM.

For `CSc1ccc(OC(F)F)c(-c2nn(CC(=O)N3C[C@@H]4CCN[C@@H]4C3)cc2NC(=O)c2cnn3cccnc23)c1` [Example 56, N-[1-[2-[(3aS,6aS)-2,3,3a,4,6,6a-hexahydro-1H-pyrrolo[2,3-c]pyrrol-5-yl]-2-oxo-ethyl]-3-[2-(difluoromethoxy)-5-methylsulfanyl-phenyl]pyrazol-4-yl]pyrazolo[1,5-a]pyrimidine-3-carboxamide], the Ki in assay [1] turned out to be 0.41 nM; in assay [2], 0.48 nM. For the same molecule, the IC50 in assay [3] is 84 nM.

Take `CSc1ccc(OC(F)F)c(-c2nn(CC(=O)N3CCC(N4CCOC[C@H]4C)CC3)cc2NC(=O)c2cnn3cccnc23)c1` [Example 57, N-[3-[2-(difluoromethoxy)-5-methylsulfanyl-phenyl]-1-[2-[4-[(3R)-3-methylmorpholin-4-yl]-1-piperidyl]-2-oxo-ethyl]pyrazol-4-yl]pyrazolo[1,5-a]pyrimidine-3-carboxamide]: the Ki in assay [1] came to 0.26 nM; in assay [2], 0.43 nM. Moreover, the 50% inhibitory concentration (IC50) in assay [3] was 18 nM.

Consider `CSc1ccc(OC(F)F)c(-c2nn(CC(=O)N3CCC(N4CCC[C@@H](C#N)C4)CC3)cc2NC(=O)c2cnn3cccnc23)c1` [Example 58, N-[1-(2-[4-[(3R)-3-cyanopiperidin-1-yl]piperidin-1-yl]-2-oxoethyl)-3-[2-(difluoromethoxy)-5-(methylsulfanyl)phenyl]-1H-pyrazol-4-yl]pyrazolo[1,5-a]pyrimidine-3-carboxamide], for which the inhibition constant (Ki) in assay [1] was found to be 0.2 nM; in assay [2], 0.33 nM. Also, the IC50 in assay [3] came to 13 nM.

Regarding `CSc1ccc(OC(F)F)c(-c2nn(CC(=O)N3CCC(N4CC(C#N)C4)CC3)cc2NC(=O)c2cnn3cccnc23)c1` [Example 59, N-[1-[2-[4-(3-cyanoazetidin-1-yl)-1-piperidyl]-2-oxo-ethyl]-3-[2-(difluoromethoxy)-5-methylsulfanyl-phenyl]pyrazol-4-yl]pyrazolo[1,5-a]pyrimidine-3-carboxamide], the Ki in assay [1] was determined as 0.2 nM; in assay [2], 0.34 nM. Besides, in assay [3], the IC50 was found to be 15 nM.

Take `CSc1ccc(OC(F)F)c(-c2nn(CC(=O)N3CCC(N(C)[C@@H]4CCOC4)CC3)cc2NC(=O)c2cnn3cccnc23)c1` [Example 60, N-[3-[2-(difluoromethoxy)-5-methylsulfanyl-phenyl]-1-[2-[4-[methyl-[(3R)-tetrahydrofuran-3-yl]amino]-1-piperidyl]-2-oxo-ethyl]pyrazol-4-yl]pyrazolo[1,5-a]pyrimidine-3-carboxamide]: the Ki stood at 0.31 nM in assay [1] and 0.52 nM in assay [2]. Further, the IC50 in assay [3] was found to be 14 nM.

Take `CSc1ccc(OC(F)F)c(-c2nn(CC(=O)N3CCC(N4CCOC[C@@H]4C)CC3)cc2NC(=O)c2cnn3cccnc23)c1` [Example 61, N-[3-[2-(difluoromethoxy)-5-methylsulfanyl-phenyl]-1-[2-[4-[(3S)-3-methylmorpholin-4-yl]-1-piperidyl]-2-oxo-ethyl]pyrazol-4-yl]pyrazolo[1,5-a]pyrimidine-3-carboxamide]: the results for the Ki in assay [1] and in assay [2] were 0.25 nM and 0.48 nM, respectively. For the same molecule, in assay [3], the IC50 worked out at 13 nM.

Consider `CSc1ccc(OC(F)F)c(-c2nn(CC(=O)N3CCC(N4CCS(=O)(=O)CC4)CC3)cc2NC(=O)c2cnn3cccnc23)c1` [Example 62, N-[3-[2-(difluoromethoxy)-5-methylsulfanyl-phenyl]-1-[2-[4-(1,1-dioxo-1,4-thiazinan-4-yl)-1-piperidyl]-2-oxo-ethyl]pyrazol-4-yl]pyrazolo[1,5-a]pyrimidine-3-carboxamide], for which the values for the Ki in assay [1] and in assay [2] were 0.27 nM and 0.38 nM, respectively. Besides, in assay [3], the IC50 came out at 160 nM.

For `CSc1ccc(OC(F)F)c(-c2nn(CC(=O)N3CCC(N4CCN(C)CC4)CC3)cc2NC(=O)c2cnn3cccnc23)c1` [Example 63, N-[3-[2-(difluoromethoxy)-5-(methylsulfanyl)phenyl]-1-[2-[4-(4-methylpiperazin-1-yl)piperidin-1-yl]-2-oxoethyl]-1H-pyrazol-4-yl]pyrazolo[1,5-a]pyrimidine-3-carboxamide], the values for the Ki in assay [1] and in assay [2] were 0.35 nM and 0.7 nM, respectively. For the same molecule, the IC50 in assay [3] came out at 22 nM.

With `CSc1ccc(OC(F)F)c(-c2nn(CC(=O)N3CCC(NCCCC#N)CC3)cc2NC(=O)c2cnn3cccnc23)c1` [Example 64, N-[1-[2-[4-(3-cyanopropylamino)-1-piperidyl]-2-oxo-ethyl]-3-[2-(difluoromethoxy)-5-methylsulfanyl-phenyl]pyrazol-4-yl]pyrazolo[1,5-a]pyrimidine-3-carboxamide], the values for the Ki in assay [1] and in assay [2] were 0.33 nM and 0.48 nM, respectively. Besides, in assay [3], the IC50 came to 52 nM.

The record behind these values is US20180265515A1 (Genentech, Inc., priority 2015, published 2018).
